Results published in PMC6886721 (Journal of medicinal chemistry, 2019).
Where a SMILES comes first, the peptide text is derived from it. [ ]: non-standard residue; d: D form. Dab = NCC[C@H](N)C(=O)O; Dap = NC[C@H](N)C(=O)O

Experiments:
[1] = Circular dichroism, helical structure; format: physicochemical; settings: for [θ]222, aqueous pH 7 / [θ]222, 50% TFE: CD, 222 nm; for [θ]222, aqueous pH 7 / [θ]222, 50% TFE / % helix, aqueous pH 7: 25 °C; for [θ]222, aqueous pH 7: 100 mM KCl, 50 mM Na2HPO4/NaH2PO4, pH 7.0; for [θ]222, 50% TFE: pH 7.0 buffer containing 50% TFE; for % helix induced: increase in molar ellipticity (as a percentage) in the presence of 50% TFE; for % helix, aqueous pH 7: relative to the molar ellipticity of the peptide in 50% TFE
[2] = RP-HPLC temperature profiling, self-association; format: physicochemical; settings: temperature at which maximum retention time is observed over 5–77 °C, Zorbax 300 SB-C8, 0.5% acetonitrile/min, 0.30 mL/min, TFA pH 2
human red blood cells = test: Hemolytic activity; format: cell-based; settings: for HC50: pH 7.4

Row | SMILES | [θ]222, aqueous pH 7 [1] | [θ]222, 50% TFE [1] | % helix induced [1] [%] | % helix, aqueous pH 7 [1] [%] | Tp [2] [°C] | HC50 fold improvement (human red blood cells) | HC50 (human red blood cells) [µg/mL]
1 | CC(=O)N[C@H](CCCCN)C(=O)N[C@H](CC(C)C)C(=O)N[C@@H](CN)C(=O)N[C@H](CO)C(=O)N[C@H](CC(C)C)C(=O)N[C@H](CC(C)C)C(=O)N[C@@H](CN)C(=O)N[C@@H](C(=O)N[C@H](CC(C)C)C(=O)N[C@H](CO)C(=O)N[C@@H](CN)C(=O)N[C@H](C)C(=O)N[C@H](C)C(=O)N[C@H](C)C(=O)N[C@H](C)C(=O)N[C@H](C)C(=O)N[C@H](CC(C)C)C(=O)N[C@@H](CN)C(=O)N[C@@H](C(=O)N[C@H](CC(C)C)C(=O)N[C@H](CC(C)C)C(=O)N[C@@H](CN)C(=O)N[C@H](C)C(=O)N[C@H](CC(C)C)C(=O)N[C@H](CO)C(=O)N[C@@H](CN)C(N)=O)[C@H](C)O)[C@H](C)O [D105(K13A/K16A)-(Lys^1-6 Dap-1)] (Ac-[dK][dL][Dap][dS][dL][dL][Dap][dT][dL][dS][Dap][dA][dA][dA][dA][dA][dL][Dap][dT][dL][dL][Dap][dA][dL][dS][Dap]-NH2) | 9577 mdeg cm^2/(dmol × res) | 18038 mdeg cm^2/(dmol × res) | 47 | 53 | 39.0 | – | –
2 | CC(=O)N[C@H](CCCCN)C(=O)N[C@H](CC(C)C)C(=O)N[C@@H](CCN)C(=O)N[C@H](CO)C(=O)N[C@H](CC(C)C)C(=O)N[C@H](CC(C)C)C(=O)N[C@@H](CCN)C(=O)N[C@@H](C(=O)N[C@H](CC(C)C)C(=O)N[C@H](CO)C(=O)N[C@@H](CCN)C(=O)N[C@H](C)C(=O)N[C@H](CCCCN)C(=O)N[C@H](C)C(=O)N[C@H](C)C(=O)N[C@H](CCCCN)C(=O)N[C@H](CC(C)C)C(=O)N[C@@H](CCN)C(=O)N[C@@H](C(=O)N[C@H](CC(C)C)C(=O)N[C@H](CC(C)C)C(=O)N[C@@H](CCN)C(=O)N[C@H](C)C(=O)N[C@H](CC(C)C)C(=O)N[C@H](CO)C(=O)N[C@H](CO)C(N)=O)[C@H](C)O)[C@H](C)O [D102(Lys^1Ser^26-5 Dab-1)] (Ac-[dK][dL][Dab][dS][dL][dL][Dab][dT][dL][dS][Dab][dA][dK][dA][dA][dK][dL][Dab][dT][dL][dL][Dab][dA][dL][dS][dS]-NH2) | – | – | – | – | – | >177 | >2000
3 | CC(=O)N[C@H](CCCCN)C(=O)N[C@H](CC(C)C)C(=O)N[C@@H](CN)C(=O)N[C@H](CO)C(=O)N[C@H](CC(C)C)C(=O)N[C@H](CC(C)C)C(=O)N[C@@H](CN)C(=O)N[C@@H](C(=O)N[C@H](CC(C)C)C(=O)N[C@H](CO)C(=O)N[C@@H](CN)C(=O)N[C@H](C)C(=O)N[C@H](CCCCN)C(=O)N[C@H](C)C(=O)N[C@H](C)C(=O)N[C@H](CCCCN)C(=O)N[C@H](CC(C)C)C(=O)N[C@@H](CN)C(=O)N[C@@H](C(=O)N[C@H](CC(C)C)C(=O)N[C@H](CC(C)C)C(=O)N[C@@H](CN)C(=O)N[C@H](C)C(=O)N[C@H](CC(C)C)C(=O)N[C@H](CO)C(=O)N[C@@H](CN)C(N)=O)[C@H](C)O)[C@H](C)O [D105(Lys^1-6 Dap-1)] (Ac-[dK][dL][Dap][dS][dL][dL][Dap][dT][dL][dS][Dap][dA][dK][dA][dA][dK][dL][Dap][dT][dL][dL][Dap][dA][dL][dS][Dap]-NH2) | 5961 mdeg cm^2/(dmol × res) | 24192 mdeg cm^2/(dmol × res) | 75 | 25 | 16.9 | >287 | >3000
4 | CC(=O)N[C@H](CCCCN)C(=O)N[C@H](CC(C)C)C(=O)N[C@@H](CCN)C(=O)N[C@H](CO)C(=O)N[C@H](CC(C)C)C(=O)N[C@H](CC(C)C)C(=O)N[C@@H](CCN)C(=O)N[C@@H](C(=O)N[C@H](CC(C)C)C(=O)N[C@H](CO)C(=O)N[C@@H](CCN)C(=O)N[C@H](C)C(=O)N[C@H](C)C(=O)N[C@H](C)C(=O)N[C@H](C)C(=O)N[C@H](C)C(=O)N[C@H](CC(C)C)C(=O)N[C@@H](CCN)C(=O)N[C@@H](C(=O)N[C@H](CC(C)C)C(=O)N[C@H](CC(C)C)C(=O)N[C@@H](CCN)C(=O)N[C@H](C)C(=O)N[C@H](CC(C)C)C(=O)N[C@H](CO)C(=O)N[C@@H](CCN)C(N)=O)[C@H](C)O)[C@H](C)O [D86(K13A/K16A)-(Lys^1-6 Dab-1)] (Ac-[dK][dL][Dab][dS][dL][dL][Dab][dT][dL][dS][Dab][dA][dA][dA][dA][dA][dL][Dab][dT][dL][dL][Dab][dA][dL][dS][Dab]-NH2) | 2308 mdeg cm^2/(dmol × res) | 18731 mdeg cm^2/(dmol × res) | 88 | 12 | 31.0 | – | –
5 | CC(=O)N[C@H](CCCCN)C(=O)N[C@H](CC(C)C)C(=O)N[C@@H](CCN)C(=O)N[C@H](CO)C(=O)N[C@H](CC(C)C)C(=O)N[C@H](CC(C)C)C(=O)N[C@@H](CCN)C(=O)N[C@@H](C(=O)N[C@H](CC(C)C)C(=O)N[C@H](CO)C(=O)N[C@@H](CCN)C(=O)N[C@H](C)C(=O)N[C@H](CCCCN)C(=O)N[C@H](C)C(=O)N[C@H](C)C(=O)N[C@H](CCCCN)C(=O)N[C@H](CC(C)C)C(=O)N[C@@H](CCN)C(=O)N[C@@H](C(=O)N[C@H](CC(C)C)C(=O)N[C@H](CC(C)C)C(=O)N[C@@H](CCN)C(=O)N[C@H](C)C(=O)N[C@H](CC(C)C)C(=O)N[C@H](CO)C(=O)N[C@@H](CCN)C(N)=O)[C@H](C)O)[C@H](C)O [D86(Lys^1-6 Dab-1)] (Ac-[dK][dL][Dab][dS][dL][dL][Dab][dT][dL][dS][Dab][dA][dK][dA][dA][dK][dL][Dab][dT][dL][dL][Dab][dA][dL][dS][Dab]-NH2) | 1769 mdeg cm^2/(dmol × res) | 27923 mdeg cm^2/(dmol × res) | 94 | 6 | 5.0 | >186 | >2000
